From ChEMBL document CHEMBL5724558, “Image-based profiling of drug vulnerabilities in CRC organoids” (2024)
Where “and” joins values, the source holds several entries; their conditions need not be identical. Equal values may be shown once.

Tests used:
Assay type in all cases: functional, Homo sapiens
Design in all cases: dose or concentration left out as unconfirmed
Colon cancer organoid [1] = assay: (§1) Image-based profiling of donated chemical probes and chemogenomic kinase set in O06 CRC organoid. Image analysis is performed on the sum area metric, and the data were normalized to the DMSO control. After imaging the organoid viability is measured using the OneGloEX Luciferase Assay System. The normalized viability data and sum area are reported.
Colon cancer organoid [2] = assay: as §1, with “O09” for “O06”
Colon cancer organoid [3] = assay: as §1, with “O21” for “O06”

Row | Structure (SMILES) | Cell Viability (Colon cancer organoid [1]; Replication number 1) | Cell Viability (Colon cancer organoid [1]; Replication number 2) | Cell Viability (Colon cancer organoid [2]; Replication number 1) | Cell Viability (Colon cancer organoid [2]; Replication number 2) | Cell Viability (Colon cancer organoid [3]; Replication number 1) | Cell Viability (Colon cancer organoid [3]; Replication number 2)
1 | N#CN1CC[C@@H](C(=O)Nc2nc3c(s2)CN(C(=O)CN=[N+]=[N-])CC3)C1 [JYQ88] | 45.8886% and 74.332% | 68.3691% and 90.3412% | 58.2871% and 66.775% | 121.196% and 102.102% | 106.224% and 86.2132% | 132.659% and 94.3236%
2 | CCc1ccccc1C(=O)Nc1n[nH]c2c(C)c(F)c(C3C(C#N)=C(C)N(C)C(C)=C3C#N)cc12 [BAY-3827] | 111.052% and 125.293% | 118.254% and 98.7859% | 62.8379% and 77.8869% | 39.4727% and 62.2125% | 104.538% and 100.129% | 99.5085% and 100.51%
3 | CCOc1cc(N2CCC(O)CC2)ccc1Nc1ncc2c(n1)N(C1CCCC1)CCC(=O)N2C | 54.2917% and 71.4425% | 45.2272% and 91.5167% | 71.8666% and 49.1195% | 54.8924% and 49.401% | 101.764% and 118.746% | 133.409% and 125.513%
4 | COc1cccc(CNC(=O)c2nc3scc(CN(C)Cc4ccccc4)c3c(=O)[nH]2)c1 [T-26f] | 86.0581% and 83.8408% | 86.5317% and 78.1759% | 195.868% and 94.1333% | 147.324% and 100.767% | 98.5646% and 83.8292% | 88.8685% and 86.2245%
5 | Cc1ncsc1-c1ccc(CNC(=O)[C@@H]2C[C@@H](O)CN2C(=O)[C@@H](NC(=O)CCCCNC(=O)c2ccc(-c3ccc(N4CCN(C)CC4)c(NC(=O)c4c[nH]c(=O)cc4C(F)(F)F)c3)cc2)C(C)(C)C)cc1 | 127.591% and 97.9274% | 138.236% and 103.65% | 189.737% and 102.727% | 128.896% and 122.558% | 88.0354% and 100.906% | 93.0619% and 103.634%
6 | CSc1cccnc1N1CCN(Cc2nc3ccccc3[nH]2)CC1 [A-769] | 94.9192% and 98.1265% | 78.7963% and 95.9431% | 134.459% and 96.2835% | 149.547% and 115.371% | 84.3952% and 76.2613% | 99.9235% and 83.6735%
7 | Cc1cc(=O)n(C)c2cc(N3C(=O)CC[C@H](NS(=O)(=O)CC(C)C)[C@H]3c3ccc(Cl)cc3)ccc12 | 144.152% and 97.8523% | 176.827% and 107.063% | 117.261% and 101.082% | 140.716% and 110.041% | 117.189% and 110.516% | 129.923% and 112.232%
8 | O=C1CCc2cc(Nc3cc(OC4CCOCC4)c([N+](=O)[O-])cc3Cl)ccc2N1 | 92.8758% and 110.539% | 96.13% and 100.681% | 197.242% and 145.978% | 128.806% and 115.663% | 105.584% and 104.204% | 94.4034% and 103.061%
9 | CCOC(=O)c1c(/C(C#N)=C\N)c2ccc(Cl)c(Cl)c2n1C | 68.8446% and 103.482% | 89.5184% and 120.135% | 79.2888% and 103.726% | 80.6301% and 101.308% | 124.932% and 127.137% | 116.619% and 130.014%
10 | CC1CCN(c2ccnc(NCc3cn(C)cn3)n2)CC1 [TP-040] | 114.457% and 102.441% | 78.7525% and 90.5361% | 164.974% and 118.043% | 162.348% and 114.826% | 98.573% and 105.41% | 113.293% and 110.51%
11 | COc1ccccc1-c1cc(N2CCN(C(=O)OC(C)(C)C)CC2)c(N)nn1 | 179.264% and 129.02% | 154.723% and 113.755% | 86.2709% and 84.3895% | 173.59% and 117.453% | 94.3574% and 85.8263% | 106.056% and 125.119%
